For assay [1], the target named is T1, ALK (Homo sapiens, UniProt Q9UM73).
T1 construct: host or cells: baculovirus expression system
Kind of assay: ALK Kinase Assay (ELISA/TRF, PLC-γ substrate). It is filed as biochemical. The note with it: ALK kinase inhibition, 1 μM ATP; read-out: ALK Potency. Summed up:
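Time-resolved fluorescence ELISA using Eu-N1 PT66 antibody to detect phosphorylated PLC-γ (coated at 10 μg/mL). Enzyme at 30 ng/ml ALK; 15 min incubation, 37° C.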
In general terms: An ELISA detects its analyte on a solid surface through an enzyme-linked reagent.

Assay [2] deals with T2, JAK2 (Homo sapiens, UniProt O60674).
T2 construct: host or cells: baculovirus expression system
Kind of assay: Recombinant Human JAK2 Kinase Assay (TRF). It is filed as biochemical. Conditions: JAK2 kinase inhibition, 0.2 μM ATP; read-out: JAK2 Potency. Summed up: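 Baculovirus-expressed JAK2 (15 ng/ml) phosphorylated a biotinylated 15-mer peptide captured on Neutravidin-coated plates, in 20 mM HEPES pH 7.2 with 0.2 μM ATP, 1 mM MnCl2, 0.1% BSA and 2.5% DMSO. Reaction ran 20 min at room temperature; phosphopeptide was detected by time-resolved fluorescence with Eu-N1-labelled PY100 antibody.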

T1 sequence (Q9UM73 19-1620): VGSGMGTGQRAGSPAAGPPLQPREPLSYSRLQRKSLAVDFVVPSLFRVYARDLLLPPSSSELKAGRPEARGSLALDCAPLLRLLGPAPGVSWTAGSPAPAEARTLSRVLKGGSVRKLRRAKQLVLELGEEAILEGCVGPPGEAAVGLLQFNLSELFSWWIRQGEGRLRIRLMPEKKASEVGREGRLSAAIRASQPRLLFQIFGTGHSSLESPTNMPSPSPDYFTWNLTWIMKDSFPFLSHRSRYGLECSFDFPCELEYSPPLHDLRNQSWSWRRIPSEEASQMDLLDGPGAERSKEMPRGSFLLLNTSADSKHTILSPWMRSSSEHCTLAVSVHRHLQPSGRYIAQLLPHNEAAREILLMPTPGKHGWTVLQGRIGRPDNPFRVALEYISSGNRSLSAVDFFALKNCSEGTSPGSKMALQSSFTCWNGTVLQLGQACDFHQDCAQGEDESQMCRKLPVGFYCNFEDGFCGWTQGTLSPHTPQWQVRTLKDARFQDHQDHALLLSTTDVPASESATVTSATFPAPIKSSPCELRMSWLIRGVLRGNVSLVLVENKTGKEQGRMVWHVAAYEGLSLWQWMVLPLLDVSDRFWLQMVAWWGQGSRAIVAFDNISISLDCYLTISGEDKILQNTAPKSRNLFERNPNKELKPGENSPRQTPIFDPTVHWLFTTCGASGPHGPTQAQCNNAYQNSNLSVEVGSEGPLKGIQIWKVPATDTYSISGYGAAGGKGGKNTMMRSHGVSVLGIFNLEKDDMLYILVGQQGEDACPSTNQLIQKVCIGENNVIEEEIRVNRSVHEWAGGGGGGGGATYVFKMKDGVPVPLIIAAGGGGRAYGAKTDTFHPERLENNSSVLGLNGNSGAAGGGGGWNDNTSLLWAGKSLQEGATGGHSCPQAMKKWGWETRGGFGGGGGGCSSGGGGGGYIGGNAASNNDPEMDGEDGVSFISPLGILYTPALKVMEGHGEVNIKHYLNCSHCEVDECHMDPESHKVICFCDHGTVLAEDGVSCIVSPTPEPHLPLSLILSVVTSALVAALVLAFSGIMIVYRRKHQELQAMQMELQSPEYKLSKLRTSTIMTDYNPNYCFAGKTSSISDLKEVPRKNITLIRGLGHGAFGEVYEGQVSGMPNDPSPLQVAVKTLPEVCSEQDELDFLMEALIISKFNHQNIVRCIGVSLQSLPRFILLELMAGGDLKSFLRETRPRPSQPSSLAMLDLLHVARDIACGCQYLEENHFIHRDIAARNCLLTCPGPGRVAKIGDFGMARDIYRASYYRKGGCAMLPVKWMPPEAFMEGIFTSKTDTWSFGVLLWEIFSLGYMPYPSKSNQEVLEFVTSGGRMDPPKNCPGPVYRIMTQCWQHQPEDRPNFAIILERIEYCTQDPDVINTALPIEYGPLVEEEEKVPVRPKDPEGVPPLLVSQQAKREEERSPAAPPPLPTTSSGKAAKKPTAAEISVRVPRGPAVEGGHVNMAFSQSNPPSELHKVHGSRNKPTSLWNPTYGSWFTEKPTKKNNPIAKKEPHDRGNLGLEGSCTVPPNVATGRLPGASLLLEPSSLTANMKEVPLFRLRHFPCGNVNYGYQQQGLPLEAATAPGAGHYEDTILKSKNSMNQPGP
T2 sequence (O60674 whole entry): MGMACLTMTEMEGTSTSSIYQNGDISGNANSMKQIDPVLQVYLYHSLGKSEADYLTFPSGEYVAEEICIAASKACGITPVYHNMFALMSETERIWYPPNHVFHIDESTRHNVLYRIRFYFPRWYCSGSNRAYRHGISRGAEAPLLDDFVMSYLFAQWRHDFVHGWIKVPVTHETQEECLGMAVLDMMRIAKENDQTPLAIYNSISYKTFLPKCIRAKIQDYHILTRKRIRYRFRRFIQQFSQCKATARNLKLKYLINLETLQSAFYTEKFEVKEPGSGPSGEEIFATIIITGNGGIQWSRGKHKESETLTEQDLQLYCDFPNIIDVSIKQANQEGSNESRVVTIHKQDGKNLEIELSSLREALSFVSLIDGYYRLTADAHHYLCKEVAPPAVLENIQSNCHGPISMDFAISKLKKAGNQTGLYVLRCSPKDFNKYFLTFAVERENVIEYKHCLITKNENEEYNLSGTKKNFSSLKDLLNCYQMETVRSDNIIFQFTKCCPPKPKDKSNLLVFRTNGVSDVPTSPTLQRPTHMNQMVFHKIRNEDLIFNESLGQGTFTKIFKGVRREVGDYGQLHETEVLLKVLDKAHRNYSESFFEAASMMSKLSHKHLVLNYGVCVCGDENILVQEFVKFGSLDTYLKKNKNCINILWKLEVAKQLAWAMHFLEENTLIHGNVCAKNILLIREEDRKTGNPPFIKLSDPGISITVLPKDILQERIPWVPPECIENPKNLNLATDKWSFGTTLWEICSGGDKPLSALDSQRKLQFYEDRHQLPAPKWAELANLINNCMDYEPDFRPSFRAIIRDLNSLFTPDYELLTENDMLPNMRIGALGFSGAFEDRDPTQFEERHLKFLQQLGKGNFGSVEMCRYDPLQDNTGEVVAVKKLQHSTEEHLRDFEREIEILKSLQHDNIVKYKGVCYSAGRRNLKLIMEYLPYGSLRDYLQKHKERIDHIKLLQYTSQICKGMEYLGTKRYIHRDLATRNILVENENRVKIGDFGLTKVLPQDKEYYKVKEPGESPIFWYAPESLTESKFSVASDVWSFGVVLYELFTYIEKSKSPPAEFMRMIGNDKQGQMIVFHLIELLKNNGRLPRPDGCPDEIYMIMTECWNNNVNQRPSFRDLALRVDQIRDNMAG

`COc1ccccc1-c1ccc2cnc(Nc3ccc(C4CN(CC(N)=O)C4)cc3)nn12` [Example 583, 2-(3-{4-[7-(2-Methoxy-phenyl)-pyrrolo[2,1-f][1,2,4]triazin-2-ylamino]-phenyl}-azetidin-1-yl)-acetamide]: the IC50 is 100 to 1000 nM in assay [1] and below 100 nM in assay [2].
Regarding `COc1ccc(-c2ccc3cnc(Nc4ccc(C5CN(CC(N)=O)C5)cc4)nn23)cn1` [Example 584, 2-(3-{4-[7-(6-Methoxy-pyridin-3-yl)-pyrrolo[2,1-f][1,2,4]triazin-2-ylamino]-phenyl}-azetidin-1-yl)-acetamide], the IC50 is 100 to 1000 nM in assay [1] and below 100 nM in assay [2].
The matching figures for `Cn1cc(-c2ccc3cnc(Nc4ccc(C5CN(CC(N)=O)C5)cc4)nn23)cn1` [Example 585, 2-(3-{4-[7-(1-Methyl-1H-pyrazol-4-yl)-pyrrolo[2,1-f][1,2,4]triazin-2-ylamino]-phenyl}-azetidin-1-yl)-acetamide]: 100 to 1000 nM and below 100 nM.
Take `CN(c1ccccc1-c1ccc2cnc(Nc3ccc(C4CN(CC(N)=O)C4)cc3)nn12)S(C)(=O)=O` [Example 586, 2-[3-(4-{7-[2-(Methanesulfonyl-methyl-amino)-phenyl]-pyrrolo[2,1-f][1,2,4]triazin-2-ylamino}-phenyl)-azetidin-1-yl]-acetamide]: the IC50 in assay [1] and in assay [2] was below 100 nM throughout.
Regarding `NC(=O)CN1CC(c2ccc(Nc3ncc4ccc(-c5cccc6c5OCC6)n4n3)cc2)C1` [Example 587, 2-(3-{4-[7-(2,3-Dihydro-benzofuran-7-yl)-pyrrolo[2,1-f][1,2,4]triazin-2-ylamino]-phenyl}-azetidin-1-yl)-acetamide], the IC50 in assay [1] and in assay [2] was below 100 nM in each case.
On to `CC(C)Oc1cccc(-c2ccc3cnc(Nc4ccc(C5CCN(CC(N)=O)CC5)cc4)nn23)c1` [Example 588, 2-(4-{4-[7-(3-Isopropoxy-phenyl)-pyrrolo[2,1-f][1,2,4]triazin-2-ylamino]-phenyl}-piperidin-1-yl)-acetamide], for which the values for the IC50 in assay [1] and in assay [2] were 100 to 1000 nM and below 100 nM, respectively.
The matching figures for `CN1CCN(CC2CCN(c3ccc(Nc4ncc5ccc(-c6cccc(S(=O)(=O)NC(C)(C)C)c6)n5n4)cc3)CC2)CC1` [Example 589, N-tert-Butyl-3-(2-{4-[4-(4-methyl-piperazin-1-ylmethyl)-piperidin-1-yl]-phenylamino}-pyrrolo[2,1-f][1,2,4]triazin-7-yl)-benzenesulfonamide]: below 100 nM and below 100 nM.
In the case of `CC(C)(C)NS(=O)(=O)c1cccc(-c2ccc3cnc(Nc4ccc(=O)[nH]c4)nn23)c1` [Example 590, N-tert-Butyl-3-[2-(6-oxo-1,6-dihydro-pyridin-3-ylamino)-pyrrolo[2,1-f][1,2,4]triazin-7-yl]-benzenesulfonamide], the figures for the IC50 in assay [1] and in assay [2] were 1000 to 10000 nM and below 100 nM, respectively.
For the molecule `COc1ccccc1-c1ccc2cnc(Nc3ccc(=O)[nH]c3)nn12` [Example 591, 5-[7-(2-Methoxy-phenyl)-pyrrolo[2,1-f][1,2,4]triazin-2-ylamino]-1H-pyridin-2-one], the IC50 in assay [1] was 1000 to 10000 nM; in assay [2], below 100 nM.
Take `CN(C)S(=O)(=O)c1cccc(Nc2ncc3ccc(-c4cccc(S(=O)(=O)NC(C)(C)C)c4)n3n2)c1` [Example 592, 3-({7-[3-(tert-butylsulfamoyl)phenyl]pyrrolo[2,1-f][1,2,4]triazin-2-yl}amino)-N,N-dimethylbenzenesulfonamide]: the IC50 in assay [1] is 1000 to 10000 nM; in assay [2] it was below 100 nM.
Regarding `CN(C)S(=O)(=O)c1ccc(Nc2ncc3ccc(-c4cccc(S(=O)(=O)NC(C)(C)C)c4)n3n2)cc1` [Example 593, 4-({7-[3-(tert-butylsulfamoyl)phenyl]pyrrolo[2,1-f][1,2,4]triazin-2-yl}amino)-N,N-dimethylbenzenesulfonamide], the results for the IC50 in assay [1] and in assay [2] were above 10000 nM and below 100 nM, respectively.
As to `COc1ccccc1-c1ccc2cnc(Nc3cccc(S(=O)(=O)N(C)C)c3)nn12` [Example 594, 3-[7-(2-Methoxy-phenyl)-pyrrolo[2,1-f][1,2,4]triazin-2-ylamino]-N,N-dimethyl-benzenesulfonamide], the IC50 is 1000 to 10000 nM in assay [1] and below 100 nM in assay [2].
`CN(c1ccccc1-c1ccc2cnc(Nc3ccc(=O)[nH]c3)nn12)S(C)(=O)=O` [Example 596, N-Methyl-N-{2-[2-(6-oxo-1,6-dihydro-pyridin-3-ylamino)-pyrrolo[2,1-f][1,2,4]triazin-7-yl]-phenyl}-methanesulfonamide]: the IC50 is 1000 to 10000 nM in assay [1] and below 100 nM in assay [2].
In the case of `CS(=O)(=O)c1cccc(-c2ccc3cnc(Nc4ccc(F)c(Cl)c4)nn23)c1` [Example 597, (3-Chloro-4-fluoro-phenyl)-[7-(3-methanesulfonyl-phenyl)-pyrrolo[2,1-f][1,2,4]triazin-2-yl]-amine], the IC50 in assay [1] was above 10000 nM; in assay [2], below 100 nM.
Turning to `Cn1cc(-c2ccc3cnc(N4CCC(Oc5cccc(N)c5)CC4)nn23)cn1` [Example 598, 3-{1-[7-(1-Methyl-1H-pyrazol-4-yl)-pyrrolo[2,1-f][1,2,4]triazin-2-yl]-piperdin-4-yloxy}-phenylamine], the IC50 in assay [1] is above 10000 nM; in assay [2] it was 100 to 1000 nM.
For `Cc1nc2cc(Nc3ncc4ccc(-c5cccc(S(C)(=O)=O)c5)n4n3)ccc2o1` [Example 599, [7-(3-Methanesulfonyl-phenyl)-pyrrolo[2,1-f][1,2,4]triazin-2-yl]-(2-methyl-benzoxazol-5-yl)-amine], the figures for the IC50 in assay [1] and in assay [2] were 1000 to 10000 nM and below 100 nM, respectively.
On to `Cc1nc2cc(Nc3ncc4ccc(-c5cccc(S(=O)(=O)NC(C)(C)C)c5)n4n3)ccc2o1` [Example 600, N-tert-Butyl-3-[2-(2-methyl-benzoxazol-5-ylamino)-pyrrolo[2,1-f][1,2,4]triazin-7-yl]-benzenesulfonamide], for which the IC50 in assay [1] is 1000 to 10000 nM; in assay [2], below 100 nM.
Consider `COc1ccccc1-c1ccc2cnc(Nc3cccc(OC4CCNCC4)c3)nn12` [Example 601, [7-(2-Methoxy-phenyl)-pyrrolo[2,1-f][1,2,4]triazin-2-yl]-[3-(piperidin-4-yloxy)-phenyl]-amine], for which the values for the IC50 in assay [1] and in assay [2] were 100 to 1000 nM and below 100 nM, respectively.
Turning to `CS(=O)(=O)c1cccc(-c2ccc3cnc(Nc4ccc5c(c4)CCC(N4CCOCC4)CC5)nn23)c1` (stereo not drawn) [Example 611, [7-(3-Methanesulfonyl-phenyl)-pyrrolo[2,1-f][1,2,4]triazin-2-yl]-(7-morpholin-4-yl-6,7,8,9-tetrahydro-5H-benzocyclohepten-2-yl)-amine], the IC50 in assay [1] is 100 to 1000 nM; in assay [2] it was below 100 nM.
Consider `CS(=O)(=O)c1ccc(-c2ccc3cnc(Nc4ccc5c(c4)CCC(N4CCOCC4)CC5)nn23)cc1` (stereo not drawn) [Example 612, [7-(4-Methanesulfonyl-phenyl)-pyrrolo[2,1-f][1,2,4]triazin-2-yl]-(7-morpholin-4-yl-6,7,8,9-tetrahydro-5H-benzocyclohepten-2-yl)-amine], for which the IC50 in assay [1] was 100 to 1000 nM; in assay [2], below 100 nM.
With `C1=C(c2ccc3cnc(Nc4ccc(N5CCOCC5)cc4)nn23)CCSC1` [Example 613, [7-(3,6-Dihydro-2H-thiopyran-4-yl)-pyrrolo[2,1-f][1,2,4]triazin-2-yl]-(4-morpholin-4-yl-phenyl)-amine], the IC50 in assay [1] was 1000 to 10000 nM; in assay [2] it was below 100 nM.
On to `COc1ccccc1-c1ccc2cnc(Nc3ccc4c(c3)CCC(N3CCOCC3)CC4)nn12` (stereo not drawn) [Example 614, [7-(2-methoxy-phenyl)-pyrrolo[2,1-f][1,2,4]triazin-2-yl]-(7-morpholin-4-yl-6,7,8,9-tetrahydro-5H-benzocyclohepten-2-yl)amine], for which the IC50 in assay [1] and in assay [2] was below 100 nM throughout.
Consider `CN(c1ccccc1-c1ccc2cnc(Nc3ccc4c(c3)CCC(N3CCOCC3)CC4)nn12)S(C)(=O)=O` (stereo not drawn) [Example 615, N-Methyl-N-{2-[2-(7-morpholin-4-yl-6,7,8,9-tetrahydro-5H-benzocyclohepten-2-ylamino)-pyrrolo[2,1-f][1,2,4]triazin-7-yl]-phenyl}-methanesulfonamide], for which the IC50 in assay [1] and in assay [2] was below 100 nM each time.
Turning to `CN1CCOCc2cc(Nc3ncc4ccc(-c5ccccc5N(C)S(C)(=O)=O)n4n3)ccc21` [Example 616, N-Methyl-N-{2-[2-(1-methyl-1,2,3,5-tetrahydro-benzo[e][1,4]oxazepin-7-ylamino)-pyrrolo[2,1-f][1,2,4]triazin-7-yl]-phenyl}-methanesulfonamide], the IC50 in assay [1] is 100 to 1000 nM; in assay [2] it was below 100 nM.
`CN1CCOCc2cc(Nc3ncc4ccc(-c5ccc(S(C)(=O)=O)cc5)n4n3)ccc21` [Example 617, [7-(4-Methanesulfonyl-phenyl)-pyrrolo[2,1-f][1,2,4]triazin-2-yl]-(1-methyl-1,2,3,5-tetrahydro-benzo[e][1,4]oxazepin-7-yl)-amine]: the IC50 in assay [1] was 1000 to 10000 nM; in assay [2], below 100 nM.
The matching figures for `COc1ccccc1-c1ccc2cnc(Nc3ccc4c(c3)COCCN4C)nn12` [Example 618, [7-(2-Methoxy-phenyl)-pyrrolo[2,1-f][1,2,4]triazin-2-yl]-(1-methyl-1,2,3,5-tetrahydro-benzo[e][1,4]oxazepin-7-yl)-amine]: 100 to 1000 nM and below 100 nM.
With `CN1CCOCc2cc(Nc3ncc4ccc(-c5cccc(NS(C)(=O)=O)c5)n4n3)ccc21` [Example 619, N-{3-[2-(1-Methyl-1,2,3,5-tetrahydro-benzo[e][1,4]oxazepin-7-ylamino)-pyrrolo[2,1-f][1,2,4]triazin-7-yl]-phenyl}-methanesulfonamide], the results for the IC50 in assay [1] and in assay [2] were 100 to 1000 nM and below 100 nM, respectively.

Source of the values: patent US8471005B2 (Cephalon, Inc., priority 2008, dated 2013).
